These results are taken from US9458181B2, “Cathepsin cysteine protease inhibitors” (Merck Sharp & Dohme Corp., priority 2013, dated 2016).

Bounds are passed on as bounds.

The target of assay [1] is T1, human cathepsin F (Homo sapiens, UniProt Q9UBX1).
T1 sequence (Q9UBX1 271-484): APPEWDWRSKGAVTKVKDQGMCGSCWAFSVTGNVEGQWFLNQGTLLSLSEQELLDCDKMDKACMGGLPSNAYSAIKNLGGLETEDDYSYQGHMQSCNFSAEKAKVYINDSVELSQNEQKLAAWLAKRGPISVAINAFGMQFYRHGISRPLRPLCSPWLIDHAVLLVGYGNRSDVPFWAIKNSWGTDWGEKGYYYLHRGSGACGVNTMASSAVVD
Briefly: Cathepsin F assay (hCat F). It is filed as biochemical. As to conditions: human cathepsin F 10 nM, Z-Phe-Arg-AMC 8 μM, pH 5.5, 15 min preincubation; read-out: hCat F IP. The method, then: Cathepsin F assay (hCat F)
(§1) Serial dilutions (⅓) from 500 μM down to 0.025 μM of test compounds were prepared in dimethyl sulfoxide (DMSO). Then 0.5 μL of DMSO from each dilution were added to 18.75 μL of assay buffer (MES, 50 mM (pH 5.5); EDTA, 2.5 mM; DTT, 2.5 mM and 10% DMSO) containing human cathepsin F (10 nM) in assay buffer solution. The assay solutions were mixed for 5-10 seconds on a shaker plate and incubated for 15 minutes at room temperature. Z-Phe-Arg-AMC (8 μM) in 6.25 μL of assay buffer was added to the assay solutions. Hydrolysis of the coumarin leaving group (AMC) was followed by spectrofluorometry (Exp, =360 nm; EmX=460 nm) for 20 minutes. Percent of inhibition were calculated by fitting experimental values to standard mathematical model for dose response curve.

Assay [2] concerns the target human cathepsin K (UniProt P43236). Description: Cathepsin K Assay (hrbCat K). It is filed as biochemical. Particulars: human cathepsin K 0.4 nM, Z-Leu-Arg-AMC 8 μM, pH 5.5, 15 min preincubation; read-out: hrbCat K IP. The method, then:
Cathepsin K Assay (hrbCat K)
as §1, with “K (0.4” for “F (10”, “Z-Leu-Arg-AMC” for “Z-Phe-Arg-AMC”, “(Exλ=360” for “(Exp, =360”, “Emλ=460” for “EmX=460”, “30” for “20”

In the case of `N#CC1(NC(=O)[C@@H]2CCCC[C@H]2c2oc(-c3cccc(C(F)(F)F)n3)nc2-c2ccc(N3CCS(=O)(=O)CC3)cc2)CC1` [Example 100, (1R,2R)-N-(1-cyanocyclopropyl)-2-(4-(4-(1,1-dioxidothiomorpholino)phenyl)-2-(6-(trifluoromethyl)pyridin-2-yl)oxazol-5-yl)cyclohexanecarboxamide], the IC50 in assay [1] turned out to be 2860 nM; in assay [2] it was 4.11 nM.
On to `COC1CC(c2nc(-c3ccc(N4CCS(=O)(=O)CC4)cc3)c([C@@H]3CCCC[C@H]3C(=O)NC3(C#N)CC3)o2)C1` (mixture of isomers) [Example 117, (1R,2R)-N-(1-cyanocyclopropyl)-2-(4-(4-(1,1-dioxidothiomorpholino)phenyl)-2-((1R,3R and 1S,3S)-3-methoxycyclobutyl)oxazol-5-yl)cyclohexanecarboxamide], for which the IC50 is 2240 nM in assay [1] and 1.46 nM in assay [2].
With `CS(=O)(=O)C1CN(c2ccc(-c3nc(C(F)(F)F)oc3[C@@H]3CCCC[C@H]3C(=O)NC3(C#N)CC3)cc2)C1` [Example 25], the IC50 in assay [1] was determined as 447 nM; in assay [2] it was 0.66 nM.
Regarding `N#CC1(NC(=O)[C@@H]2CCCC[C@H]2c2sc(-c3ccc(F)cc3)nc2-c2ccc(N3CCS(=O)(=O)CC3)cc2)CC1` [Example 56, (1R,2R)-N-(1-cyanocyclopropyl)-2-(4-(4-(1,1-dioxidothiomorpholino)phenyl)-2-(4-fluorophenyl)thiazol-5-yl)cyclohexanecarboxamide], the IC50 in assay [1] amounted to 722 nM; in assay [2] it was 3.19 nM.
Taken in the same sequence, the figures for `N#CC1(NC(=O)[C@@H]2CCCC[C@H]2c2oc(-c3ccc(Cl)cc3F)nc2-c2ccc(N3CCS(=O)(=O)CC3)cc2)CC1` [Example 94, (1R,2R)-2-(2-(4-chloro-2-fluorophenyl)-4-(4-(1,1-dioxidothiomorpholino)phenyl)oxazol-5-yl)-N-(1-cyanocyclopropyl) cyclohexanecarboxamide] were 380 nM and 1.2 nM.
On to `CC(C#N)NC(=O)[C@@H]1CCCC[C@H]1c1oc(-c2ccc(F)cc2F)nc1-c1ccc(N2CCS(=O)(=O)CC2)cc1` (single isomer, unassigned) [Example 46, (1R,2R)-N-((S or R)-1-cyanoethyl)-2-(2-(2,4-difluorophenyl)-4-(4-(1,1-dioxidothiomorpholino)phenyl)oxazol-5-yl)cyclohexanecarboxamide], for which the IC50 came out at 230 nM in assay [1] and 0.66 nM in assay [2].
Taken in the same sequence, the figures for `N#CC1(NC(=O)[C@@H]2CCCC[C@H]2c2oc(-c3ccccn3)nc2-c2ccc(N3CCS(=O)(=O)CC3)cc2)CC1` [Example 28, (1R,2R)-N-(1-cyanocyclopropyl)-2-(4-(4-(1,1-dioxidothiomorpholino)phenyl)-2-(pyridin-2-yl)oxazol-5-yl)cyclohexanecarboxamide] were 1360 nM and 1.26 nM.
For the molecule `N#CC1(NC(=O)[C@@H]2CCC(F)(F)C[C@H]2c2oc(-c3ccc(F)cc3)nc2-c2ccc(N3CCS(=O)(=O)CC3)cc2)CC1` [Example 139, (1R,2R)-N-(1-cyanocyclopropyl)-2-(4-(4-(1,1-dioxidothiomorpholino)phenyl)-2-(4-fluorophenyl)oxazol-5-yl)-4,4-difluorocyclohexane-carboxamide], the IC50 in assay [1] amounted to 2420 nM; in assay [2], 3.84 nM.
Take `N#CC1(NC(=O)[C@@H]2CCCC[C@H]2c2oc(-c3cncc(Cl)c3)nc2-c2ccc(N3CCS(=O)(=O)CC3)cc2)CC1` [Example 95, (1R,2R)-2-(2-(5-chloropyridin-3-yl)-4-(4-(1,1-dioxidothiomorpholino)phenyl)oxazol-5-yl)-N-(1-cyanocyclopropyl) cyclohexanecarboxamide]: the IC50 worked out at 775 nM in assay [1] and 1.17 nM in assay [2].
For the molecule `Cc1nc(-c2ccc(C(=O)NC3(C#N)CC3)cc2)c([C@@H]2CCCC[C@H]2C(=O)NC2(C#N)CC2)o1` [Example 21, N-(1-cyanocyclopropyl)-4-(5-((1R,2R)-2-((1-cyanocyclopropyl)carbamoyl)cyclohexyl)-2-methyloxazol-4-yl)benzamide], the IC50 is at least 10000 nM in assay [1] and 61.9 nM in assay [2].
As to `N#CC1(NC(=O)[C@@H]2CCCC[C@H]2c2oc(-c3cnc(C(F)(F)F)nc3)nc2-c2ccc(N3CCS(=O)(=O)CC3)cc2)CC1` [Example 85, (1R,2R)-N-(1-cyanocyclopropyl)-2-(4-(4-(1,1-dioxidothiomorpholino)phenyl)-2-(2-(trifluoromethyl)pyrimidin-5-yl)oxazol-5-yl)cyclohexanecarboxamide], the values for the IC50 in assay [1] and in assay [2] were 2520 nM and 1.57 nM, respectively.
Taken in the same sequence, the figures for `CCC(C#N)NC(=O)[C@@H]1CCCC[C@H]1c1oc(-c2ccc(F)cc2)nc1-c1ccc(N2CCS(=O)(=O)CC2)cc1` (single isomer, unassigned) [Example 125, (1R,2R)-N-((S or R)-1-cyanopropyl)-2-(4-(4-(1,1-dioxidothiomorpholino)phenyl)-2-(4-fluorophenyl)oxazol-5-yl)cyclohexanecarboxamide] were 104 nM and 0.69 nM.
Consider `N#CC1(NC(=O)[C@@H]2CCCC[C@H]2c2oc(-c3ccc(F)cc3)nc2-c2ccc(N3CC[S+]([O-])CC3)cc2)CC1` [Example 135, (1R,2R)-N-(1-cyanocyclopropyl)-2-(2-(4-fluorophenyl)-4-(4-(1-oxidothiomorpholino)phenyl)oxazol-5-yl)cyclohexanecarboxamide], for which the IC50 was 458 nM in assay [1] and 1.39 nM in assay [2].
With `C[C@H]1CC(F)(F)CC[C@@H]1c1nc(-c2ccc(N3CCS(=O)(=O)CC3)cc2)c([C@@H]2CCCC[C@H]2C(=O)NC2(C#N)CC2)o1` [Example 108, (1R,2R)-N-(1-cyanocyclopropyl)-2-(2-((1S,2S)-4,4-difluoro-2-methylcyclohexyl)-4-(4-(1,1-dioxidothiomorpholino)phenyl)oxazol-5-yl)cyclohexanecarboxamide], the IC50 in assay [1] was found to be 1390 nM; in assay [2] it was 2.08 nM.
As to `N#CC1(NC(=O)[C@@H]2CC(F)(F)CC[C@H]2c2oc(-c3ccc(F)cc3)nc2-c2ccc(N3CCS(=O)(=O)CC3)cc2)CC1` [Example 20, (1R,2R)-N-(1-cyanocyclopropyl)-2-(4-(4-(1,1-dioxidothiomorpholino)phenyl)-2-(4-fluorophenyl)oxazol-5-yl)-5,5-difluorocyclohexane-carboxamide], the IC50 in assay [1] was 71 nM; in assay [2] it was 0.28 nM.
As for `N#Cc1ccccc1-c1nc(-c2ccc(N3CCS(=O)(=O)CC3)cc2)c([C@@H]2CCCC[C@H]2C(=O)NC2(C#N)CC2)o1` [Example 105, (1R,2R)-N-(1-cyanocyclopropyl)-2-(2-(2-cyanophenyl)-4-(4-(1,1-dioxidothiomorpholino)phenyl)oxazol-5-yl)cyclohexanecarboxamide], the IC50 is 1920 nM in assay [1] and 2.4 nM in assay [2].
Consider `C[C@@H](C#N)NC(=O)[C@@H]1CCCC[C@H]1c1oc(-c2ccc(F)cc2)nc1-c1ccc(N2CC[S+]([O-])CC2)cc1` [Example 141, (1R,2R)-N-((S)-1-cyanoethyl)-2-(2-(4-fluorophenyl)-4-(4-(1-oxidothiomorpholino)phenyl)oxazol-5-yl)cyclohexanecarboxamide], for which the IC50 in assay [1] was found to be 167 nM; in assay [2] it was 0.9 nM.
